The values below come from US20090253709A1 (NATIONAL DEFENSE MEDICAL CENTER, priority 2008, published 2009).

Usually melting point stands for the temperature, or range, at which the solid turns liquid.

Each structure is given as a SMILES string.

One data set concerns hTERT expression. The data set can be described thus: SEAP assay in hTERT-BJ1-PTERT(3.4)-SEAP cells. It counts as cell-based. The settings on record: Homo sapiens; BJ1; compound concentration 10 μM; read-out: SEAP (Inhibition μM ± SD). The protocol:
A total of 2×10^3 hTERT-BJ1-PTERT(3.4)-SEAP cells were seeded in the 96-well cell culture plate, and incubated with DMEM (GIBCO®)/glucose mixture and Medium 199 (GIBCO®)/10% FBS/1 mM sodium pyruvate (GIBCO®)/4 mM L-glutamine (GIBCO®) mixture at a ratio of 4:1 at 37° C. for 24 hours. When the cells were attached in the bottom of the well, the seriously-diluted compounds with different concentrations ([…]) were treated with the cells for 48 hours, and the PTERT(3.4)-SEAP cells without drug treatment were being the control. After 48 hours of drug treatment, the cultured medium were collected for performing the analysis of SEAP activity. The cells were washed with 1×PBS once immediately, and the MTT assay was performed to compare the compounds with the relative toxicity or the influence to the proliferation and activity.
The cellular medium after the cellular incubation was transferred into the eppondorf tube, and the activity of endogeneous alkaline phosphatase was inactivated at 65° C. for 10 minutes. After centrification, the mixture was obtained by mixing 50 μl of the supernatant with the equal volume of the SEAP buffer. The mixture and the substrate (120 mM of p-nitrophenylphosphate) were preheated at 37° C. for 10 minutes respectively, and the mixture and the substrate were mixed at a ratio of 1:10 and reacted at 37° C. The absorbance of visible light at 405 nm was determined at the appropriate time intervals, and the enzymatic activity of SEAP was represented by the speed of the increasing absorbance at 405 nm.
Consider `CCCNCCC(=O)Nc1ccc2c(c1)C(=O)c1cc(NC(=O)CCNCCC)ccc1C2=O` [Compound 21, 2,7-Bis[3-(propylamino)propionamido]anthraquinone], for which the activity at 10 µM was 133 ± 48%.

The same data set, now with this note: Homo sapiens; BJ1; compound concentration 100 μM; read-out: SEAP (Inhibition μM ± SD).
For `CCCNCCC(=O)Nc1ccc2c(c1)C(=O)c1cc(NC(=O)CCNCCC)ccc1C2=O` [Compound 21, 2,7-Bis[3-(propylamino)propionamido]anthraquinone], the activity at 100 µM was determined as 217 ± 40%.

Tested on in the next data set: not listed separately
As to the kind of experiment: MTT assay in BJ1 cells. Conditions: human, hTERT-BJ1-PTERT(3.4)-SEAP cells; BJ1; compound concentration 1 μM; read-out: MTT (Inhibition μM ± SD). It counts as cell-based. The protocol:
(§1) A total of 2×10^3 […] cells were seeded in the 96-well cell culture plate, and incubated with DMEM (GIBCO®)/glucose mixture and Medium 199 (GIBCO®)/10% FBS/1 mM sodium pyruvate (GIBCO®)/4 mM L-glutamine (GIBCO®) mixture at a ratio of 4:1 at 37° C. for 24 hours. […] After 48 hours of drug treatment, the cultured medium were collected for performing the analysis of SEAP activity. The cells were washed with 1×PBS once immediately, and the MTT assay was performed to compare the compounds with the relative toxicity or the influence to the proliferation and activity. Mitochondria is the place for cellular respiration, and there are many reductive reactions catalyzed by dehydrogenases. MTT is a water-soluble yellow compound, and the […] will be formed after reduction. This crystal can be dissolved in the organic solvent, and has high absorbance at the wavelength of 570 nm. The higher cellular activity or more cell numbers, the more generated crystal violets. Therefore, the cellular activity and cell number can be obtained by the MTT assay. MTT solution was prepared by dissolving MTT powder in PBS solution to achieve 5 mg/ml, filtrated and stored at 4° C. Lysis buffer contained 20% (w/v) of SDS in 50% of N,N-dimethylformamide (DMF, Riedel-deHaën). After the cells were incubated in the 96-well culture plate, the original medium was discarded, 100 μl of the fresh serum-free medium per well and 25 μl of MTT solution per well were added in respectively, and the cells were further incubated in the CO2 incubator at 37° C. for 4 hours. Then, 100 μl of lysis buffer per well was added in and incubated overnight in the CO2 incubator at 37° C. The absorbance at 570 nm was determined by the ELISA reader.
A general note: Tetrazolium dyes change colour on reduction, which living cells bring about.
Consider `Nc1ccc2c(c1)C(=O)c1cc(N)ccc1C2=O` [Compound 2, 2,7-Diaminoanthraquinone], for which the viability at 48 h, 1 µM worked out at 95 ± 2%.
Consider `O=C(CN1CCCC1)Nc1ccc2c(c1)C(=O)c1cc(NC(=O)CN3CCCC3)ccc1C2=O` [Compound 6, 2,7-Bis[2-(pyrrolidino)acetamido]anthraquinone], for which the viability at 48 h, 1 µM turned out to be 99 ± 2%.
Same read-out and setting: then `CCCNCC(=O)Nc1ccc2c(c1)C(=O)c1cc(NC(=O)CNCCC)ccc1C2=O` [Compound 9, 2,7-Bis[2-(propylamino)acetamido]anthraquinone], with 96 ± 3%; and `CCCNCCC(=O)Nc1ccc2c(c1)C(=O)c1cc(NC(=O)CCNCCC)ccc1C2=O` [Compound 21, 2,7-Bis[3-(propylamino)propionamido]anthraquinone], with 75 ± 1%.

Still in this data set, the particulars now being: human, hTERT-BJ1-PTERT(3.4)-SEAP cells; BJ1; compound concentration 10 μM; read-out: MTT (Inhibition μM ± SD).
In the case of `Nc1ccc2c(c1)C(=O)c1cc(N)ccc1C2=O` [Compound 2, 2,7-Diaminoanthraquinone], the viability at 48 h, 10 µM came to 83 ± 1%.
On to `O=C(CN1CCCC1)Nc1ccc2c(c1)C(=O)c1cc(NC(=O)CN3CCCC3)ccc1C2=O` [Compound 6, 2,7-Bis[2-(pyrrolidino)acetamido]anthraquinone], for which the viability at 48 h, 10 µM stood at 60 ± 2%.
`CCCNCC(=O)Nc1ccc2c(c1)C(=O)c1cc(NC(=O)CNCCC)ccc1C2=O` [Compound 9, 2,7-Bis[2-(propylamino)acetamido]anthraquinone]: the viability at 48 h, 10 µM turned out to be 44%.
On the same count and under the same terms, then `CCCNCCC(=O)Nc1ccc2c(c1)C(=O)c1cc(NC(=O)CCNCCC)ccc1C2=O` [Compound 21, 2,7-Bis[3-(propylamino)propionamido]anthraquinone], with 65 ± 2%.

Staying with this data set, now noted: human, hTERT-BJ1-PTERT(3.4)-SEAP cells; BJ1; compound concentration 100 μM; read-out: MTT (Inhibition μM ± SD).
Regarding `Nc1ccc2c(c1)C(=O)c1cc(N)ccc1C2=O` [Compound 2, 2,7-Diaminoanthraquinone], the viability at 48 h, 100 µM is 80 ± 2%.
Take `O=C(CN1CCCC1)Nc1ccc2c(c1)C(=O)c1cc(NC(=O)CN3CCCC3)ccc1C2=O` [Compound 6, 2,7-Bis[2-(pyrrolidino)acetamido]anthraquinone]: the viability at 48 h, 100 µM came out at 39 ± 1%.
Take `CCCNCC(=O)Nc1ccc2c(c1)C(=O)c1cc(NC(=O)CNCCC)ccc1C2=O` [Compound 9, 2,7-Bis[2-(propylamino)acetamido]anthraquinone]: the viability at 48 h, 100 µM turned out to be 42 ± 1%.
Turning to `CCCNCCC(=O)Nc1ccc2c(c1)C(=O)c1cc(NC(=O)CCNCCC)ccc1C2=O` [Compound 21, 2,7-Bis[3-(propylamino)propionamido]anthraquinone], the viability at 48 h, 100 µM worked out at 38 ± 2%.

Tested on in another data set: not listed separately
The data set can be described thus: MTT assay in H1299 cells. It counts as cell-based. The settings on record: human, H1299 cells (H1299/PhTERT-driven SEAP reporter system); H1299; compound concentration 1 μM; read-out: MTT (Inhibition μM ± SD). The method, then:
as §1, with “H1299 is a non-small cell lung cancer cell line with telomerase activity. The cell extract of H1299 cell lines can be used for selecting the telomerase activity inhibitors in vitro and the telomerase activity-inhibited substances in vivo. H1299 cell line was incubated with RPMI 1640 medium supplemented with 10% of fetal bovine serum (FBS). A total” for “A total”, “ELISA reader. The selection of telomerase inhibitors of the anthraquinone compounds provided in the present invention was performed by the […]-driven SEAP system. SEAP is the communication gene in this drug selection model. The SEAP inhibition was shown as follows. […] Subsequently, the linear slope of absorbance to the measuring time was calculated, and the variance of absorbance at 405 nm per minute was represented and compared with the SEAP-producing result of drug-untreated H1299 cells. In addition, the influence of the cell-treated drug solution to the cellular proliferation and the drug toxicity to the cells were considered, and the cellular growth was evaluated by the MTT assay. The drug-treated cells were analyzed by the SEAP assay and the data analysis of MTT assay at the same time. Both results were compared so as to delete the influence of cell number or the activity to SEAP, and the dose-dependent phenomenon could be anticipated in the range of drug concentration designed by the laboratory. […] Since the chemically-synthetic drugs have colors thereon, the SEAP value of drug-treatment without cells was also determined to be the background value which was deducted while treating with the drugs. The candidate drug for inhibiting telomerase on the hTERT gene expression level was evaluated and anticipated.” for “ELISA reader.”
As to `Nc1ccc2c(c1)C(=O)c1cc(N)ccc1C2=O` [Compound 2, 2,7-Diaminoanthraquinone], the viability at 24 h, 1 µM is 90 ± 17%.
The same measure, in the same setting: as for `O=C(CN1CCCC1)Nc1ccc2c(c1)C(=O)c1cc(NC(=O)CN3CCCC3)ccc1C2=O` [Compound 6, 2,7-Bis[2-(pyrrolidino)acetamido]anthraquinone], the figure is 99 ± 9%; as for `CCCNCC(=O)Nc1ccc2c(c1)C(=O)c1cc(NC(=O)CNCCC)ccc1C2=O` [Compound 9, 2,7-Bis[2-(propylamino)acetamido]anthraquinone], 89 ± 15%; as for `CCCNCCC(=O)Nc1ccc2c(c1)C(=O)c1cc(NC(=O)CCNCCC)ccc1C2=O` [Compound 21, 2,7-Bis[3-(propylamino)propionamido]anthraquinone], 80 ± 15%.

Still in this data set, the particulars now being: human, H1299 cells (H1299/PhTERT-driven SEAP reporter system); H1299; compound concentration 10 μM; read-out: MTT (Inhibition μM ± SD).
As for `Nc1ccc2c(c1)C(=O)c1cc(N)ccc1C2=O` [Compound 2, 2,7-Diaminoanthraquinone], the viability at 24 h, 10 µM was 80 ± 16%.
Regarding `O=C(CN1CCCC1)Nc1ccc2c(c1)C(=O)c1cc(NC(=O)CN3CCCC3)ccc1C2=O` [Compound 6, 2,7-Bis[2-(pyrrolidino)acetamido]anthraquinone], the viability at 24 h, 10 µM worked out at 52 ± 13%.
The same measure, in the same setting: as for `CCCNCC(=O)Nc1ccc2c(c1)C(=O)c1cc(NC(=O)CNCCC)ccc1C2=O` [Compound 9, 2,7-Bis[2-(propylamino)acetamido]anthraquinone], the figure is 54 ± 11%.
Regarding `CCCNCCC(=O)Nc1ccc2c(c1)C(=O)c1cc(NC(=O)CCNCCC)ccc1C2=O` [Compound 21, 2,7-Bis[3-(propylamino)propionamido]anthraquinone], the viability at 24 h, 10 µM is 50 ± 6%.

Staying with this data set, now noted: human, H1299 cells (H1299/PhTERT-driven SEAP reporter system); H1299; compound concentration 100 μM; read-out: MTT (Inhibition μM ± SD).
Regarding `Nc1ccc2c(c1)C(=O)c1cc(N)ccc1C2=O` [Compound 2, 2,7-Diaminoanthraquinone], the viability at 24 h, 100 µM worked out at 65 ± 10%.
Consider `O=C(CN1CCCC1)Nc1ccc2c(c1)C(=O)c1cc(NC(=O)CN3CCCC3)ccc1C2=O` [Compound 6, 2,7-Bis[2-(pyrrolidino)acetamido]anthraquinone], for which the viability at 24 h, 100 µM turned out to be 23 ± 14%.
As to `CCCNCC(=O)Nc1ccc2c(c1)C(=O)c1cc(NC(=O)CNCCC)ccc1C2=O` [Compound 9, 2,7-Bis[2-(propylamino)acetamido]anthraquinone], the viability at 24 h, 100 µM turned out to be 14 ± 10%.
The same measure, in the same setting: as for `CCCNCCC(=O)Nc1ccc2c(c1)C(=O)c1cc(NC(=O)CCNCCC)ccc1C2=O` [Compound 21, 2,7-Bis[3-(propylamino)propionamido]anthraquinone], the figure is 13 ± 10%.

Tested on in a further data set: not given
Assay: not given
Settings: not given
`Nc1ccc2c(c1)C(=O)c1cc(N)ccc1C2=O` [Compound 2, 2,7-Diaminoanthraquinone] showed a melting point of 342 °C.
On the same count and under the same terms, then `O=C(CN1CCCC1)Nc1ccc2c(c1)C(=O)c1cc(NC(=O)CN3CCCC3)ccc1C2=O` [Compound 6, 2,7-Bis[2-(pyrrolidino)acetamido]anthraquinone], with 201 °C; and `CCCNCC(=O)Nc1ccc2c(c1)C(=O)c1cc(NC(=O)CNCCC)ccc1C2=O` [Compound 9, 2,7-Bis[2-(propylamino)acetamido]anthraquinone], with 143 °C.
